This passage reports IC50 results from patent US8501755B2, “Tetrahydropyridothienopyrimidine compounds and methods of use thereof” (Bayer Intellectual Property GmbH, priority 2006, dated 2013).

Common to all, as to format: cell-based
One test deals with A431 cells. As to the kind of experiment: In vitro tumor cell proliferation assay (Cell Titer-Glo) in A431 cells. The following applies: Homo sapiens, A-431, 72 h, A431 human epidermoid carcinoma overexpressing HER1; 72 hours exposure; read-out: IC50, activities in A431 cell lines. The method in brief:
(§1)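 Viability after 72 h drug exposure at 37 °C was read as CellTiter-Glo ATP luminescence, giving IC50. Cells (2.5×10^3/well, RPMI + 10% FBS) were compound-treated one day post-seeding, 0.1% DMSO final: A431 overexpresses HER1, N87 overexpresses HER2 and HER1.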

A further test relates to N87. The test is described as follows: In vitro tumor cell proliferation assay (Cell Titer-Glo) in N87 cells. The following applies: N87 human gastric carcinoma overexpressing HER2 and HER1; 72 hours exposure; read-out: IC50, activities in N87 cell lines. An outline of the steps:
as §1
Background: In ATP-based viability assays light output follows the ATP content of the culture.

In another test the test system is H1975 cells. As to the kind of experiment: In vitro tumor cell proliferation assay (Cell Titer-Glo) in H1975 cells. The following applies: NCI-H1975; H1975 human NSCLC expressing mutant HER1 (L858R,T790M); 72 hours exposure; read-out: IC50, activities in H 1975 cell lines. The method in brief: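 After 72 h compound exposure at 37° C (top 10 uM down to 64 pM, 0.1% DMSO), viability of EGFR L858R/T790M-mutant H1975 cells was read as ATP luminescence.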

For the compound `CCN(CC)C/C=C/C(=O)N1CCc2c(sc3ncnc(Nc4ccc(OCc5cccnc5)c(Cl)c4)c23)C1` [Example 86, N-[3-chloro-4-(pyridin-3-ylmethoxy)phenyl]-7-[(2E)-4-(diethylamino)but-2-enoyl]-5,6,7,8-tetrahydropyrido [4′,3′:4,5]thieno[2,3-d]pyrimidin-4-amine], the IC50 in the test with A431 cells is 1000 to 10000 nM; in the test on N87 it was below 200 nM; in the test on H1975 cells, 200 to 1000 nM.

Consider `O=C(C#CCCN1CCCCC1)N1CCc2c(sc3ncnc(Nc4ccc(OCc5ccccn5)c(Cl)c4)c23)C1` [Example 132, N-[3-chloro-4-(pyridin-2-ylmethoxy)phenyl]-7-(5-piperidin-1-ylpent-2-ynoyl)-5,6,7,8-tetrahydropyrido[4′,3′:4,5]-thieno[2,3-d]pyrimidin-4-amine], for which the IC50 with A431 cells was 200 to 1000 nM; with N87, below 200 nM; in the test on H1975 cells it was 200 to 1000 nM.

As for `CN(C/C=C/C(=O)N1CCc2c(sc3ncnc(Nc4ccc(Cl)c(Cl)c4)c23)C1)C1CCCCC1` [Example 203, 7-{(2E)-4-[cyclohexyl(methyl)amino]but-2-enoyl}-N-(3,4-dichlorophenyl)-5,6,7,8-tetrahydropyrido [4′,3′:4,5]thieno[2,3-d]pyrimidin-4-amine], the IC50 with A431 cells was 200 to 1000 nM; in the test with N87 it was below 200 nM; with H1975 cells, 1000 to 10000 nM.

Turning to `O=C(/C=C/CN1CCOCC1)N1CCc2c(sc3ncnc(Nc4cccc(Br)c4)c23)C1` [Example 193, N-(3-bromophenyl)-7-[(2E)-4-morpholin-4-ylbut-2-enoyl]-5,6,7,8-tetrahydropyrido [4′,3′:4,5]thieno[2,3-d]pyrimidin-4-amine], the figures for the IC50 in the test with A431 cells, in the test on N87 and in the test with H1975 cells were 1000 to 10000 nM, below 200 nM and 1000 to 10000 nM, respectively.

For `O=C(/C=C/CN1CCCCC1)N1CCc2c(sc3ncnc(Nc4ccc(OCc5cccnc5)c(Cl)c4)c23)C1` [Example 88, N-[3-chloro-4-(pyridin-3-ylmethoxy)phenyl]-7-[(2E)-4-piperidin-1-ylbut-2-enoyl]-5,6,7,8-tetrahydropyrido [4′3′:4,5]thieno[2,3-d]pyrimidin-4-amine], the concentration for half-maximal inhibition (IC50) is 1000 to 10000 nM with A431 cells, below 200 nM in the test with N87 and 200 to 1000 nM in the test on H1975 cells.

As for `CN(C)C/C=C/C(=O)N1CCc2c(sc3ncnc(Nc4ccc(Cl)c(Cl)c4)c23)C1` [Example 165, N-(3,4-dichlorophenyl)-7-{(2E)-4-[dimethylamino]but-2-enoyl}-5,6,7,8-tetrahydropyrido[4′,3′:4,5]thieno[2,3-d]pyrimidin-4-amine], the IC50 in the test with A431 cells was 200 to 1000 nM; with N87, below 200 nM; with H1975 cells, below 200 nM.

For `CCc1cccc(Nc2ncnc3sc4c(c23)CCN(C(=O)/C=C/CN(C)C)C4)c1` [Example 178, 7-[(2E)-4-(dimethylamino)but-2-enoyl]-N-(3-ethylphenyl)-5,6,7,8-tetrahydropyrido [4′,3′:4,5]thieno[2,3-d]pyrimidin-4-amine], the IC50 in the test with A431 cells is 1000 to 10000 nM; in the test on N87, below 200 nM; in the test with H1975 cells it was 1000 to 10000 nM.

For the compound `CCN(CC)C/C=C/C(=O)N1CCc2c(sc3ncnc(Nc4ccc(Cl)c(Cl)c4)c23)C1` [Example 188, N-(3,4-dichlorophenyi)-7-[(2E)-4-(diethylamino)but-2-enoyl]-5,6,7,8-tetrahydropyrido [4′,3′:4,5]thieno[2,3-d]pyrimidin-4-amine], the IC50 in the test on A431 cells was 200 to 1000 nM; with N87, below 200 nM; with H1975 cells, 200 to 1000 nM.

In the case of `CCN(CC)C/C=C/C(=O)N1CCc2c(sc3ncnc(Nc4ccc(F)c(Cl)c4)c23)C1` [Example 9, N-(3-chloro-4-fluorophenyl)-7-[(2E)-4-(diethylamino)but-2-enoyl]-5,6,7,8-tetrahydropyrido[4′,3′:4,5]thieno[2,3-d]pyrimidin-4-amine], the IC50 is below 200 nM with A431 cells, below 200 nM in the test with N87 and 1000 to 10000 nM in the test on H1975 cells.

Consider `CCN(C/C=C/C(=O)N1CCc2c(sc3ncnc(Nc4ccc(Cl)c(Cl)c4)c23)C1)C(C)C` [Example 205, N-(3,4-dichlorophenyl)-7-{(2E)-4-[ethyl(isopropyl)amino]but-2-enoyl}-5,6,7,8-tetrahydropyrido [4′,3′:4,5]thieno[2,3-d]pyrimidin-4-amine], for which the half-maximal inhibitory concentration (IC50) with A431 cells, in the test with N87 and in the test with H1975 cells was below 200 nM each time.

`Cc1cccc(COc2ccc(Nc3ncnc4sc5c(c34)CCN(C(=O)/C=C/CN3CCOCC3)C5)cc2Cl)n1` [Example 84, N-{3-chloro-4-[(6-methylpyridin-2-yl)methoxy]phenyl}-7-[(2E)-4-morpholin-4-ylbut-2-enoyl]-5,6,7,8-tetrahydropyrido [4′,3′:4,5]thieno[2,3-d]pyrimidin-4-amine]: the half-inhibitory concentration (IC50) with A431 cells was 1000 to 10000 nM; with N87 it was below 200 nM; with H1975 cells it was 1000 to 10000 nM.

As for `O=C(/C=C/CCN1CCCC1)N1CCc2c(sc3ncnc(Nc4ccc(F)c(Cl)c4)c23)C1` [Example 152, N-(3-chloro-4-fluorophenyl)-7-[(2E)-5-pyrrolidin-1-ylpent-2-enoyl]-5,6,7,8-tetrahydropyrido [4′,3′:4,5]thieno[2,3-d]pyrimidin-4-amine], the IC50 in the test on A431 cells was 1000 to 10000 nM; in the test on N87, below 200 nM; in the test with H1975 cells, 1000 to 10000 nM.

For `CC(C)CN(C)C/C=C/C(=O)N1CCc2c(sc3ncnc(Nc4ccc(OCc5ccccn5)c(Cl)c4)c23)C1` [Example 66, N-[3-chloro-4-(pyridin-2-ylmethoxy)phenyl]-7-{(2E)-4-[isobutyl(methyl)amino]but-2-enoyl}-5,6,7,8-tetrahydropyrido [4′,3′:4,5]thieno[2,3-d]pyrimidin-4-amine], the IC50 is 200 to 1000 nM with A431 cells, below 200 nM in the test with N87 and 200 to 1000 nM in the test with H1975 cells.

As for `CC1CCCCN1C/C=C/C(=O)N1CCc2c(sc3ncnc(Nc4ccc(F)c(Cl)c4)c23)C1` (stereo not drawn) [Example 56, N-(3-chloro-4-fluorophenyl)-7-[(2E)-4-(2-methylpiperidin-1-yl)but-2-enoyl]-5,6,7,8-tetrahydropyrido [4′,3′:4,5]thieno[2,3-d]pyrimidin-4-amine], the IC50 in the test with A431 cells is 200 to 1000 nM; in the test with N87, below 200 nM; in the test with H1975 cells, 200 to 1000 nM.

On to `CN(C/C=C/C(=O)N1CCc2c(sc3ncnc(Nc4cccc(Br)c4)c23)C1)C1CCCCC1` [Example 202, N-(3-bromophenyl)-7-{(2E)-4-[cyclohexyl(methyl)amino]but-2-enoyl}-5,6,7,8-tetrahydropyrido [4′,3′:4,5]thieno[2,3-d]pyrimidin-4-amine], for which the IC50 in the test on A431 cells is 200 to 1000 nM; in the test with N87, below 200 nM; in the test with H1975 cells, 200 to 1000 nM.

As for `CN(C/C=C/C(=O)N1CCc2c(sc3ncnc(Nc4ccc5c(ccn5Cc5ccccn5)c4)c23)C1)C(C)(C)C` [Example 129], the half-inhibitory concentration (IC50) in the test with A431 cells was 200 to 1000 nM; in the test with N87, below 200 nM; in the test with H1975 cells, below 200 nM.

On to `CN(C)CC#CC(=O)N1CCc2c(sc3ncnc(Nc4ccc(OCc5ccccn5)c(Cl)c4)c23)C1` [Example 135, N-[3-chloro-4-(pyridin-2-ylmethoxy)phenyl]-7-[4-(dimethylamino)but-2-ynoyl]-5,6,7,8-tetrahydropyrido [4′,3′:4,5]thieno[2,3-d]pyrimidin-4-amine], for which the half-maximal inhibitory concentration (IC50) in the test on A431 cells was 200 to 1000 nM; in the test with N87, below 200 nM; in the test with H1975 cells, below 200 nM.

For the compound `C=CC(=O)N1CCc2c(sc3ncnc(Nc4ccc(OCc5ccccn5)c(Cl)c4)c23)C1` [Example 28], the IC50 in the test on A431 cells was 1000 to 10000 nM; in the test on N87, below 200 nM; in the test on H1975 cells, below 200 nM.

Consider `O=C(/C=C/CCO)N1CCc2c(sc3ncnc(Nc4ccc(F)c(Cl)c4)c23)C1` [Example 151, (3E)-5-{4-[(3-chloro-4-fluorophenyl)amino]-5,8-dihydropyrido [4′,3′:4,5]thieno[2,3-d]pyrimidin-7(6H)-yl}-5-oxopent-3-en-1-ol], for which the IC50 in the test with A431 cells was 1000 to 10000 nM; in the test on N87, 200 to 5000 nM; in the test with H1975 cells, 1000 to 10000 nM.

On to `O=C(/C=C/CN(CCO)CCO)N1CCc2c(sc3ncnc(Nc4ccc(OCc5ccccn5)c(Cl)c4)c23)C1` [Example 43, 2,2′-({(2E)-4-[4-{[3-chloro-4-(pyridin-2-ylmethoxy)phenyl]amino}-5,8-dihydropyrido [4′,3′:4,5]thieno[2,3-d]pyrimidin-7(6H)-yl]-4-oxobut-2-en-1-yl}imino)diethanol], for which the IC50 with A431 cells is 1000 to 10000 nM; in the test on N87, below 200 nM; in the test with H1975 cells it was 1000 to 10000 nM.

As to `CN(C)C/C=C/C(=O)N1CCc2c(sc3ncnc(Nc4ccc(F)cc4)c23)C1` [Example 175, 7-[(2E)-4-(dimethylamino)but-2-enoyl]-N-(4-fluorophenyl)-5,6,7,8-tetrahydropyrido [4′,3′:4,5]thieno[2,3-d]pyrimidin-4-amine], the IC50 in the test with A431 cells is 1000 to 10000 nM; with N87, below 200 nM; in the test on H1975 cells it was 1000 to 10000 nM.

In the case of `Cc1cc(Nc2ncnc3sc4c(c23)CCN(C(=O)/C=C/CN(C)C)C4)ccc1F` [Example 182, 7-[(2E)-4-(dimethylamino)but-2-enoyl]-N-(4-fluoro-3-methylphenyl)-5,6,7,8-tetrahydropyrido [4′,3′:4,5]thieno[2,3-d]pyrimidin-4-amine], the values for the 50% inhibitory concentration (IC50) in the test with A431 cells, with N87 and with H1975 cells were 200 to 1000 nM, below 200 nM and 1000 to 10000 nM, respectively.

`O=C(/C=C/CN1CCCC1)N1CCc2c(sc3ncnc(Nc4ccc(Cl)c(Cl)c4)c23)C1` [Example 192, N-(3,4-dichlorophenyl)-7-[(2E)-4-pyrrolidin-1-ylbut-2-enoyl]-5,6,7,8-tetrahydropyrido [4′,3′:4,5]thieno[2,3-d]pyrimidin-4-amine]: the IC50 in the test on A431 cells is 200 to 1000 nM; in the test on N87 it was below 200 nM; with H1975 cells, 200 to 1000 nM.

As a reminder, the IC50 is the midpoint of a concentration-inhibition curve.
